Like-named read-outs stand apart in the source and are kept apart here.
What was measured:
Apomorphine emesis = test: inhibition of apomorphine emesis test in the dog; assay type: in vivo; settings: for ED50: Canis lupus familiaris, ip, read-out: Apomorphine emesis (ED50)
Description: (§1) The symbols CR and CR2 relate, respectively, to the tests of inhibition of the primary and secondary conditioned response according to the method of L. Cook et al., Ann. […] The inhibition of apomorphine emesis test in the dog is carried out according to the method of G. Chen. et al., J. Pharm. Exptl.

conditioned behavior = test: conditioned behavior; assay type: in vivo, rat; settings: in comparison with chlorpromazine, in words
Description: as §1

[1] = tested on: primary conditioned response; test: CR: inhibition of the primary conditioned response; assay type: in vivo, rat; settings: ip, read-out: CR (ED50)
Description: as §1

[2] = tested on: secondary conditioned response; test: CR2: inhibition of the secondary conditioned response; assay type: in vivo, rat; settings: ip, read-out: CR2 (ED50)
Description: as §1

cardiovascular system = test: side effects on the cardiovascular system; assay type: in vivo; settings: in comparison with chlorpromazine; at a dose level 5 to 10 times higher than that of chlorpromazine
[3] = acute toxicity (LD50), rat i.p.; settings: in vivo, ip
[4] = rat, i.p., primary conditioned response
[5] = rat, i.p., secondary conditioned response

Row | Structure (SMILES) | ED50 (Apomorphine emesis; dog, i.p.) [mg/kg] | anti-emetic effect (Apomorphine emesis; in comparison with chlorpromazine, in words) | activity on the conditioned behavior (conditioned behavior) | ED50 [1, 4] [mg/kg] | ED50 [2, 5] [mg/kg] | side effects on the cardiovascular system (cardiovascular system) | LD50 [3] [mg/kg] | ED50 (Apomorphine emesis) [mg/kg] | ED50 ([1]; Rattus norvegicus) [mg/kg] | ED50 ([2]; Rattus norvegicus) [mg/kg]
1 | CC1(C)CN(CCN2CCN(c3cccc(Cl)c3)C2=O)C1 [A, 1-(m-chlorophenyl)-3-[2-(3,3-dimethylazetidin-1-yl)ethyl]-2-imidazolidinone] | < 0.05 | more potent anti-emetic effect | more specific activity on the conditioned behavior | 0.5 | 0.25 | much lower side effects on the cardiovascular system | 200 |  |  | 
2 | CN(C)CCCN1c2ccccc2Sc2ccc(Cl)cc21 [CPZ, chlorpromazine] |  |  |  |  |  |  | 120 | 1 | 3.95 | 0.96
3 | CN(C)CCN1CCN(c2cccc(Cl)c2)C1=O [Imidoline, 1-(m-chlorophenyl)-3-(2-dimethylaminoethyl)-2-imidazolidinone] | 0.25 |  |  | 5 to 10 | 2.5 |  | 200 |  |  | 

From patent publication US4011238A, “2-Imidazolidione derivatives” (Gruppo Lepetit S.p.A., priority 1972, dated 1977)
